Results taken from ChEMBL document CHEMBL1201862, “PubChem BioAssay data set” (2004).
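Briefly, cells in 96-well plates were exposed to five compound concentrations for 48 h, and endpoints were estimated by linear interpolation. Here, GI50 denotes the concentration required for 50% inhibition of growth.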 Activity calls are given as the source filed them. Cut-off read from the data, not from the text of the source: active = GI50 up to about 1.1 µM and inactive = higher.

Key:
Assay in all cases: growth of human tumour cells (NCI), 48 h
[1] = system: M14
[2] = system: COLO 205
[3] = system: Hs-578T
[4] = system: HCT-15
[5] = system: SK-MEL-5
[6] = system: TK-10
[7] = system: HT-29
[8] = system: SF-295
[9] = system: A498
[10] = system: SN12C
[11] = system: HL-60
[12] = system: OVCAR-4
[13] = system: LOX IMVI
[14] = system: RPMI-8226
[15] = system: SNB-75
[16] = system: SF-268
[17] = system: OVCAR-8
[18] = system: SF-539
[19] = system: NCI-H226
[20] = system: SR
[21] = system: RXF 393
[22] = system: K562
[23] = system: MDA-MB-231
[24] = system: UO-31
[25] = system: A549
[26] = system: OVCAR-5
[27] = system: Malme-3M
[28] = system: KM12
[29] = system: SNB-19
[30] = system: BT-549
[31] = system: UACC-62
[32] = system: HOP-92
[33] = system: U-251
[34] = system: SK-OV-3
[35] = system: HOP-62
[36] = system: NCI-H460
[37] = system: MOLT-4
[38] = system: SK-MEL-2
[39] = system: HCT-116
[40] = system: MCF7
[41] = system: MDA-N
[42] = system: PC-3
[43] = system: UACC-257
[44] = system: SK-MEL-28
[45] = system: ACHN
[46] = system: T47D
[47] = system: DU-145
[48] = system: EKVX
[49] = system: NCI/ADR-RES
[50] = system: CAKI-1
[51] = system: OVCAR-3
[52] = system: SW-620
[53] = system: IGROV-1
[54] = system: 786-0
[55] = system: NCI-H522
[56] = system: MDA-MB-435
[57] = system: NCI-H23

## O=C(O)CSCCc1ccccc1
[1]
  GI50: > 100 µM (inactive)
[2]
  GI50: > 100 µM (inactive)
[3]
  GI50: > 100 µM (inactive)
[4]
  GI50: > 100 µM
[5]
  GI50: > 100 µM (inactive)
[6]
  GI50: > 100 µM (inactive)
[7]
  GI50: > 100 µM (inactive)
[8]
  GI50: > 100 µM (inactive)
[9]
  GI50: > 100 µM (inactive)
[10]
  GI50: > 100 µM (inactive)
[11]
  GI50: 0.156 µM (active)
[12]
  GI50: > 100 µM (inactive)
[13]
  GI50: > 100 µM (inactive)
[14]
  GI50: > 100 µM (inactive)
[15]
  GI50: > 100 µM (inactive)
[16]
  GI50: > 100 µM (inactive)
[17]
  GI50: > 100 µM (inactive)
[18]
  GI50: > 100 µM (inactive)
[19]
  GI50: > 100 µM (inactive)
[20]
  GI50: > 100 µM (inactive)
[21]
  GI50: > 100 µM (inactive)
[22]
  GI50: > 100 µM (inactive)
[23]
  GI50: > 100 µM (inactive)
[24]
  GI50: > 100 µM (inactive)
[25]
  GI50: > 100 µM (inactive)
[26]
  GI50: > 100 µM (inactive)
[27]
  GI50: > 100 µM (inactive)
[28]
  GI50: > 100 µM (inactive)
[29]
  GI50: > 100 µM (inactive)
[30]
  GI50: > 100 µM (inactive)
[31]
  GI50: > 100 µM (inactive)
[32]
  GI50: > 100 µM (inactive)
[33]
  GI50: > 100 µM (inactive)
[34]
  GI50: > 100 µM (inactive)
[35]
  GI50: > 100 µM (inactive)
[36]
  GI50: > 100 µM (inactive)
[37]
  GI50: > 100 µM (inactive)
[38]
  GI50: > 100 µM (inactive)
[39]
  GI50: > 100 µM (inactive)
[40]
  GI50: > 100 µM (inactive)
[41]
  GI50: > 100 µM (inactive)
[42]
  GI50: > 100 µM (inactive)
[43]
  GI50: > 100 µM (inactive)
[44]
  GI50: > 100 µM (inactive)
[45]
  GI50: > 100 µM (inactive)
[46]
  GI50: > 100 µM (inactive)
[47]
  GI50: > 100 µM (inactive)
[48]
  GI50: > 100 µM (inactive)
[49]
  GI50: > 100 µM (inactive)
[50]
  GI50: > 100 µM (inactive)
[51]
  GI50: > 100 µM (inactive)
[52]
  GI50: > 100 µM (inactive)
[53]
  GI50: > 100 µM (inactive)
[54]
  GI50: > 100 µM (inactive)
[55]
  GI50: > 100 µM (inactive)
[56]
  GI50: > 100 µM (inactive)
[57]
  GI50: > 100 µM (inactive)
